# PubChem BioAssay (NCI)
#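 Results reflect a 48-hour exposure of cells in 96-well plates to compound at five concentrations. GI50 marks 50% less growth. TGI: total growth inhibition.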
# Tests used:
# Test in all cases: NCI anticancer screen, dose series, 48 h
# SN12C renal = tested on: SN12C renal
# NCI-H460 lung = tested on: NCI-H460 lung
# MDA-MB-231 breast = tested on: MDA-MB-231 breast
# 786-0 renal = tested on: 786-0 renal
# SNB-75 CNS = tested on: SNB-75 CNS
# SK-MEL-28 melanoma = tested on: SK-MEL-28 melanoma
# MALME-3M melanoma = tested on: MALME-3M melanoma
# MOLT-4 leukemia = tested on: MOLT-4 leukemia
# HOP-62 NSCLC = tested on: HOP-62 NSCLC
# K-562 leukemia = tested on: K-562 leukemia
# A498 renal = tested on: A498 renal
# M14 melanoma = tested on: M14 melanoma
# MDA-MB-435 = tested on: MDA-MB-435
# LOX IMVI melanoma = tested on: LOX IMVI melanoma
# A549 NSCLC = tested on: A549 NSCLC
# COLO 205 colon = tested on: COLO 205 colon
# HS 578T breast = tested on: HS 578T breast
# HOP-92 NSCLC = tested on: HOP-92 NSCLC
# DU-145 prostate = tested on: DU-145 prostate
# SF-539 CNS = tested on: SF-539 CNS
# SNB-19 CNS = tested on: SNB-19 CNS
# IGROV1 ovarian = tested on: IGROV1 ovarian
# UO-31 renal = tested on: UO-31 renal
# OVCAR-3 ovarian = tested on: OVCAR-3 ovarian
# SR leukemia = tested on: SR leukemia
# SK-MEL-5 melanoma = tested on: SK-MEL-5 melanoma
# SF-268 CNS = tested on: SF-268 CNS
# SW-620 colon = tested on: SW-620 colon
# UACC-62 melanoma = tested on: UACC-62 melanoma
# RPMI-8226 leukemia = tested on: RPMI-8226 leukemia
# HCT-116 colon = tested on: HCT-116 colon
# UACC-257 melanoma = tested on: UACC-257 melanoma
# NCI-H226 lung = tested on: NCI-H226 lung
# OVCAR-8 ovarian = tested on: OVCAR-8 ovarian
# EKVX NSCLC = tested on: EKVX NSCLC
# OVCAR-4 ovarian = tested on: OVCAR-4 ovarian
# NCI/ADR-RES ovarian = tested on: NCI/ADR-RES ovarian
# KM12 colon = tested on: KM12 colon
# CAKI-1 renal = tested on: CAKI-1 renal
# HCC-2998 colon = tested on: HCC-2998 colon
# TK-10 renal = tested on: TK-10 renal
# PC-3 prostate = tested on: PC-3 prostate
# ACHN renal = tested on: ACHN renal
# HCT-15 colon = tested on: HCT-15 colon
# SF-295 CNS = tested on: SF-295 CNS
# NCI-H522 lung = tested on: NCI-H522 lung
# RXF 393 renal = tested on: RXF 393 renal
# CCRF-CEM leukemia = tested on: CCRF-CEM leukemia
# HL-60(TB) leukemia = tested on: HL-60(TB) leukemia
# SK-MEL-2 melanoma = tested on: SK-MEL-2 melanoma
# SK-OV-3 ovarian = tested on: SK-OV-3 ovarian
# T-47D breast = tested on: T-47D breast
# OVCAR-5 ovarian = tested on: OVCAR-5 ovarian
# MCF7 breast = tested on: MCF7 breast
# BT-549 breast = tested on: BT-549 breast
# U251 CNS = tested on: U251 CNS
# HT29 colon = tested on: HT29 colon
smiles,measurement,setting,value
COc1cc2cc(Oc3ccc(NC(=O)c4cccc(C(F)(F)F)c4)cc3)c(C)nc2cc1OCCN1CCCCC1,GI50,SN12C renal,17.6 µM
same,TGI,SN12C renal,34.4 µM
same,GI50,NCI-H460 lung,19 µM
same,TGI,NCI-H460 lung,37.3 µM
same,GI50,MDA-MB-231 breast,18.4 µM
same,TGI,MDA-MB-231 breast,36.9 µM
same,GI50,786-0 renal,16.5 µM
same,TGI,786-0 renal,32.8 µM
same,GI50,SNB-75 CNS,15 µM
same,TGI,SNB-75 CNS,29.9 µM
same,GI50,SK-MEL-28 melanoma,17.1 µM
same,TGI,SK-MEL-28 melanoma,31.4 µM
same,GI50,MALME-3M melanoma,18.3 µM
same,TGI,MALME-3M melanoma,34 µM
same,GI50,MOLT-4 leukemia,20.9 µM
same,TGI,MOLT-4 leukemia,58.5 µM
same,GI50,HOP-62 NSCLC,33.6 µM
same,TGI,HOP-62 NSCLC,> 100 µM
same,GI50,K-562 leukemia,19.3 µM
same,TGI,K-562 leukemia,47 µM
same,GI50,A498 renal,> 100 µM
same,TGI,A498 renal,> 100 µM
same,GI50,M14 melanoma,17.9 µM
same,TGI,M14 melanoma,35.1 µM
same,GI50,MDA-MB-435,16.7 µM
same,TGI,MDA-MB-435,31.4 µM
same,GI50,LOX IMVI melanoma,17.8 µM
same,TGI,LOX IMVI melanoma,32.5 µM
same,GI50,A549 NSCLC,27.5 µM
same,TGI,A549 NSCLC,> 100 µM
same,GI50,COLO 205 colon,16.4 µM
same,TGI,COLO 205 colon,31 µM
same,GI50,HS 578T breast,19.4 µM
same,TGI,HS 578T breast,53 µM
same,GI50,HOP-92 NSCLC,21.7 µM
same,TGI,HOP-92 NSCLC,> 100 µM
same,GI50,DU-145 prostate,41.6 µM
same,TGI,DU-145 prostate,> 100 µM
same,GI50,SF-539 CNS,16.9 µM
same,TGI,SF-539 CNS,30.9 µM
same,GI50,SNB-19 CNS,34.8 µM
same,TGI,SNB-19 CNS,> 100 µM
same,GI50,IGROV1 ovarian,38.4 µM
same,TGI,IGROV1 ovarian,> 100 µM
same,GI50,UO-31 renal,15.4 µM
same,TGI,UO-31 renal,30 µM
same,GI50,OVCAR-3 ovarian,22.3 µM
same,TGI,OVCAR-3 ovarian,47.6 µM
same,GI50,SR leukemia,18.2 µM
same,TGI,SR leukemia,46.1 µM
same,GI50,SK-MEL-5 melanoma,17.1 µM
same,TGI,SK-MEL-5 melanoma,30.9 µM
same,GI50,SF-268 CNS,20.4 µM
same,TGI,SF-268 CNS,43.4 µM
same,GI50,SW-620 colon,21.3 µM
same,TGI,SW-620 colon,42.8 µM
same,GI50,UACC-62 melanoma,18.8 µM
same,TGI,UACC-62 melanoma,36.1 µM
same,GI50,RPMI-8226 leukemia,20.6 µM
same,TGI,RPMI-8226 leukemia,52.4 µM
same,GI50,HCT-116 colon,20.6 µM
same,TGI,HCT-116 colon,48.9 µM
same,GI50,UACC-257 melanoma,17.2 µM
same,TGI,UACC-257 melanoma,32.2 µM
same,GI50,NCI-H226 lung,> 100 µM
same,TGI,NCI-H226 lung,> 100 µM
same,GI50,OVCAR-8 ovarian,18.2 µM
same,TGI,OVCAR-8 ovarian,36.7 µM
same,GI50,EKVX NSCLC,31.6 µM
same,TGI,EKVX NSCLC,> 100 µM
same,GI50,OVCAR-4 ovarian,19.4 µM
same,TGI,OVCAR-4 ovarian,45.7 µM
same,GI50,NCI/ADR-RES ovarian,33.9 µM
same,TGI,NCI/ADR-RES ovarian,> 100 µM
same,GI50,KM12 colon,30.3 µM
same,TGI,KM12 colon,> 100 µM
same,GI50,CAKI-1 renal,16 µM
same,TGI,CAKI-1 renal,32.2 µM
same,GI50,HCC-2998 colon,18.2 µM
same,TGI,HCC-2998 colon,34.6 µM
same,GI50,TK-10 renal,> 100 µM
same,TGI,TK-10 renal,> 100 µM
same,GI50,PC-3 prostate,19 µM
same,TGI,PC-3 prostate,42 µM
same,GI50,ACHN renal,21.5 µM
same,TGI,ACHN renal,49.2 µM
same,GI50,HCT-15 colon,16 µM
same,TGI,HCT-15 colon,30.9 µM
same,GI50,SF-295 CNS,18.3 µM
same,TGI,SF-295 CNS,34 µM
same,GI50,NCI-H522 lung,16 µM
same,TGI,NCI-H522 lung,31.3 µM
same,GI50,RXF 393 renal,13.2 µM
same,TGI,RXF 393 renal,26.6 µM
same,GI50,CCRF-CEM leukemia,29.8 µM
same,TGI,CCRF-CEM leukemia,> 100 µM
same,GI50,HL-60(TB) leukemia,19.6 µM
same,TGI,HL-60(TB) leukemia,42.4 µM
same,GI50,SK-MEL-2 melanoma,> 100 µM
same,TGI,SK-MEL-2 melanoma,> 100 µM
same,GI50,SK-OV-3 ovarian,> 100 µM
same,TGI,SK-OV-3 ovarian,> 100 µM
same,GI50,T-47D breast,18.1 µM
same,TGI,T-47D breast,46.1 µM
same,GI50,OVCAR-5 ovarian,41.4 µM
same,TGI,OVCAR-5 ovarian,> 100 µM
same,GI50,MCF7 breast,14.4 µM
same,TGI,MCF7 breast,29.7 µM
same,GI50,BT-549 breast,> 100 µM
same,TGI,BT-549 breast,> 100 µM
same,GI50,U251 CNS,17.8 µM
same,TGI,U251 CNS,34 µM
same,GI50,HT29 colon,18 µM
same,TGI,HT29 colon,37.1 µM
